Reference: patent US20240228448A1 (Washington University, priority 2021, published 2024)
Where “and” joins values, the source holds several entries; their conditions need not be identical. Equal values may be shown once. Read-outs that look alike come from different tables or passages of the source.

Columns and labels:
[1] = biological target: S1P1 (Homo sapiens, UniProt P21453); experiment: competitive S1Ps cell membrane binding assay against [32P]S1P, S1P1
Description: (§1) One way to measure affinity is use of a general competition binding assay.

[2] = biological target: S1P3 (Homo sapiens, UniProt Q99500); experiment: competitive S1Ps cell membrane binding assay against [32P]S1P, S1P3; conditions: Table 6
S1P3, sequence (Q99500 whole entry, species assumed): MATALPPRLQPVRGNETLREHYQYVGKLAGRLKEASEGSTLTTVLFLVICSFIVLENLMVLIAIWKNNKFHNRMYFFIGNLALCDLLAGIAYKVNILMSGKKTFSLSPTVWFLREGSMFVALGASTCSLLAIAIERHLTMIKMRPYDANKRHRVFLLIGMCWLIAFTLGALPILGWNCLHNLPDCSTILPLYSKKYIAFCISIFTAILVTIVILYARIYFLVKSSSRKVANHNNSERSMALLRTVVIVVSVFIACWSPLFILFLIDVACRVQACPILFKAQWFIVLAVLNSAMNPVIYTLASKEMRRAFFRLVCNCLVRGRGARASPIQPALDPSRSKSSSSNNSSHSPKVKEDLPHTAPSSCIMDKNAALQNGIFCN

[3] = biological target: T1, S1P4 (Homo sapiens, UniProt O95977); experiment: competitive S1Ps cell membrane binding assay against [32P]S1P, S1P4; conditions: Table 6; read-out: IC50 for S1P4
T1 sequence (O95977 1-384): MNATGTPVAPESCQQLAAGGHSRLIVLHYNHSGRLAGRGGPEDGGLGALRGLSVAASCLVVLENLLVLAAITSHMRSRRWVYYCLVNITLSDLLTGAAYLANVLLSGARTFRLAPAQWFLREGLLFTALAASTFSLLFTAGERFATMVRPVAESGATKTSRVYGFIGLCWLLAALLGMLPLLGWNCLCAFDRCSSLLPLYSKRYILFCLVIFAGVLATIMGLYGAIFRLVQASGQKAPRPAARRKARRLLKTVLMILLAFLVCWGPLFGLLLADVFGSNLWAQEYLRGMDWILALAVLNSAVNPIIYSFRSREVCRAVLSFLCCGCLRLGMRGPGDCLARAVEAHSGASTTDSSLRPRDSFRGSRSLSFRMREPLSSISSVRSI

[4] = biological target: S1P2 (Homo sapiens, UniProt O95136); experiment: competitive S1Ps cell membrane binding assay against [32P]S1P, S1P2; conditions: Table 6
S1P2, sequence (O95136 whole entry, species assumed): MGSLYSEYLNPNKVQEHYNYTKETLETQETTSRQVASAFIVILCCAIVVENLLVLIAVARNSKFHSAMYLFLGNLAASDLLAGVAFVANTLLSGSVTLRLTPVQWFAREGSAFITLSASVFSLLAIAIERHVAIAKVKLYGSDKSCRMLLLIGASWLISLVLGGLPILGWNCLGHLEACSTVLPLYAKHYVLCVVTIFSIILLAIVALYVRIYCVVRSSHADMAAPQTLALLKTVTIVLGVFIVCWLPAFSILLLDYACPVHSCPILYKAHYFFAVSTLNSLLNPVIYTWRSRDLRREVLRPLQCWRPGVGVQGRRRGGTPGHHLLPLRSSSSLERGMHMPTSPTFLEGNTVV

[5] = biological target: S1P5 (Homo sapiens, UniProt Q9H228); experiment: competitive S1Ps cell membrane binding assay against [32P]S1P, S1P5
S1P5, sequence (Q9H228 whole entry, species assumed): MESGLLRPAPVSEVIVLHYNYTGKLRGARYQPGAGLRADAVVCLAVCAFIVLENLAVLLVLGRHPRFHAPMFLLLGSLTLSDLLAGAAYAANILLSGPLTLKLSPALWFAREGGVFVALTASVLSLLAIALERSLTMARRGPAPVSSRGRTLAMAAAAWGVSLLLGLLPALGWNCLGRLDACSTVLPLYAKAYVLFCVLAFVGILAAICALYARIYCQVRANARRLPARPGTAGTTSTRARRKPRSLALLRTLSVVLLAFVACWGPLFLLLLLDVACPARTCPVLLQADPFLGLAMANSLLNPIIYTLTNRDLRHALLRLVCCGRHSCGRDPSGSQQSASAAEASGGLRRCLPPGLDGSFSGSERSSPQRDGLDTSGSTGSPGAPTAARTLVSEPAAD
Description: as §1

[6] = MicroPET brain study in cynomolgus macaque; conditions: for brain uptake in nonhuman primates: MicroPET, in words
Description: Using a Focus 220 microPET scanner to collect dynamic scans for 2 hours after intravenous injection of ˜0.35 GBq dose into male macaques. Radiometabolites were measured from arterial blood samples collected at 5, 15, 30, and 60 min post-injection of radiotracer. The HPLC eluent was collected, and fractions were counted in a gamma counter.
Male macaques (˜10 kg) were used for PET imaging data acquisition with a microPET Focus 220 scanner (Siemens Inc., Knoxville, TN). Animals were anesthetized using ketamine and glycopyrrolate and maintained with inhalation of isoflurane. Core temperature was kept at 37° C. with a heated water blanket. The head was secured in a customized head holder. […] Emission data were corrected for dead time, scatter, and attenuation and then reconstructed. […] Predefined brain regions of interest from the template were applied to the co-registered PET image to obtain regional time-activity curves. The measurement of the brain uptake of radiotracer was standardized to body weight and the dose of radioactivity injected to yield a standardized uptake value (SUV).
The brain uptakes of these tracers were measured by Focus 220 microPET scanner to collect dynamic scans for 2 hours after intravenous injection of ˜0.35 GBq dose into male cynomolgus macaques (8-9 kg).

[7] = Human biodistribution / dosimetry PET study of [11C]CS1P1; type: in vivo
Description: One human (88 kg, SIEMENS, patient ID: 1179101) was imaged with a dose of 7.2 mCi (FIG. 10A). Good uptake was found in the brain (FIG. 10B). Residence time and total absorbed dose in individual organs was also measured (FIG. 10C and Table 4).

[8] = read-out: IC50 (nM) S1P1, Table 5
[9] = Table 5, read-out: IC50 (nM) S1P5

S1P1, sequence (P21453 whole entry, species assumed): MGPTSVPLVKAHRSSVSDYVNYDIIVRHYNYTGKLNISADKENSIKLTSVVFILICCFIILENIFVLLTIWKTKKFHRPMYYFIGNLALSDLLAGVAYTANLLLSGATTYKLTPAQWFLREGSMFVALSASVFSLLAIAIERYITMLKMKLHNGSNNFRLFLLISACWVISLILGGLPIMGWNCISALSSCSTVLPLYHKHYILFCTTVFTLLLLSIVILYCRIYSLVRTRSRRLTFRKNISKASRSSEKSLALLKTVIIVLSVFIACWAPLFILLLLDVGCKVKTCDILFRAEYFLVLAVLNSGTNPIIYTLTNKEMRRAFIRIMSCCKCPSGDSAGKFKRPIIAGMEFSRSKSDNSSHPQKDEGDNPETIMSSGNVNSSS

IC50 ([1]; IC50 (nM) S1P1, Table 5) | IC50 [5, 9] | SMILES | further results
82 ± 1.8 nM | – | CNc1cccc(-c2noc(-c3ccc(OCCF)c(C(F)(F)F)c3)n2)c1 [TZ82-41] | –
29 ± 0.5 nM | – | Nc1cccc(-c2noc(-c3ccc(OCCF)c(C(F)(F)F)c3)n2)c1 [TZ82-42] | –
44 ± 0.6 nM | – | Nc1ccc(-c2noc(-c3ccc(OCCF)c(C(F)(F)F)c3)n2)cc1 [TZ82-43] | –
– | – | Cc1ccccc1-c1ccc(-c2nc(-c3ccc(CN(C)CCO)c(F)c3)no2)cc1C(F)(F)F [TZ82-51] | IC50 [2]: 454 nM; IC50 [3]: > 1000 nM; IC50 [4]: > 1000 nM
– | – | Cc1ccccc1-c1ccc(-c2nc(-c3ccc(CN(C)CCCO)c(F)c3)no2)cc1C(F)(F)F [TZ82-52] | IC50 [2]: 418 nM; IC50 [3]: > 1000 nM; IC50 [4]: > 1000 nM
– | – | Cc1ccccc1-c1ccc(-c2nc(-c3ccc(CN(C)CCCCO)c(F)c3)no2)cc1C(F)(F)F [TZ82-53] | IC50 [1, 8]: 4.9 nM
159 nM | 74.4 nM | CN(CCC(=O)O)Cc1ccc(-c2noc(-c3ccc(OCc4cccnc4F)c(C(F)(F)F)c3)n2)cc1F [TZ82-55] | –
55.4 nM | 39.3 nM | CN(CCC(=O)O)Cc1ccc(-c2noc(-c3ccc(OCc4cccc(F)n4)c(C(F)(F)F)c3)n2)cc1F [TZ82-56] | –
2.1 nM | 11 nM | Cc1ccccc1-c1ccc(-c2nc(-c3ccc(CN(C)CCC(=O)O)c(Br)c3)no2)cc1C(F)(F)F [TZ82-65] | –
2.8 nM | – | Cc1ccccc1-c1ccc(-c2nc(-c3ccc(COCCCO)c(F)c3)no2)cc1C(F)(F)F [TZ82-78] | –
239 nM | 182 nM | OCc1ccc(-c2noc(-c3ccc(OCc4cccnc4F)c(C(F)(F)F)c3)n2)cc1 [TZ82-91] | –
243 nM | 934 nM | OCc1ccc(-c2noc(-c3ccc(OCc4cccc(F)n4)c(C(F)(F)F)c3)n2)cc1 [TZ82-92] | –
0.7 nM | 7.2 nM | Cc1ccccc1-c1ccc(-c2nc(-c3ccc(CNCCC(=O)O)c(F)c3)no2)cc1C(F)(F)F [TZ82-94] | –
– | 12.8 nM | Cc1ccccc1-c1ccc(-c2nc(-c3ccc(CNCCCO)c(F)c3)no2)cc1C(F)(F)F [TZ82-95] | IC50 [1, 8]: 2.1 nM
2.3 nM | – | Cc1ccccc1-c1ccc(-c2nc(-c3ccc(CN(C)CCS(=O)(=O)O)c(F)c3)no2)cc1C(F)(F)F [TZ82-101] | –
23.8 nM | – | Cc1ccccc1-c1ccc(-c2nc(-c3ccc(CN(C)CCNC(=O)OC(C)(C)C)c(F)c3)no2)cc1C(F)(F)F [TZ82-102] | –
8.7 nM | – | Cc1ccccc1-c1ccc(-c2nc(-c3ccc(CNO)c(F)c3)no2)cc1C(F)(F)F [TZ82-105] | –
13.4 nM | – | CNCc1ccc(-c2noc(-c3ccc(OCCF)c(C(F)(F)F)c3)n2)cc1F [TZ82-110] | –
15.8 nM | 234 nM | CN(CCCO)Cc1ccc(-c2noc(-c3ccc(OCCF)c(C(F)(F)F)c3)n2)cc1F [TZ82-112] | IC50 ([5]; Table 6, read-out: IC50 for S1P5): > 1000 nM; IC50 [2]: 746 nM; IC50 ([1]; IC50 for S1P1 (nM), Table 6, single determinations): 15.8 nM and 2.03 nM and 8.17 nM; IC50 [3]: > 1000 nM; IC50 [4]: > 1000 nM
14.6 nM | 120 nM | CN(CCO)Cc1ccc(-c2noc(-c3ccc(OCCF)c(C(F)(F)F)c3)n2)cc1F [TZ82-114] | –
– | 721 nM | CN(CCCCO)Cc1ccc(-c2noc(-c3ccc(OCCF)c(C(F)(F)F)c3)n2)cc1F [TZ82-115] | –
3 nM | – | CNC(=O)CCN(C)Cc1ccc(-c2noc(-c3ccc(-c4ccccc4C)c(C(F)(F)F)c3)n2)cc1F [TZ82-118] | –
– | 450 nM | CN(CCCO)Cc1ccc(-c2noc(-c3ccc(OCCF)c(C(F)(F)F)c3)n2)cc1 [TZ82-124] | –
– | 1940 nM | COc1ccc(-c2nc(-c3ccc(CN(C)CCCO)cc3)no2)cc1C(F)(F)F [TZ82-126] | –
– | – | Cc1ccccc1-c1ccc(-c2nc(-c3ccc(CN([11CH3])CCC(=O)O)c(F)c3)no2)cc1C(F)(F)F [[^11C]CS1P1] | brain uptake, maximum SUV value ([6]; macaque brain, from 20 to 120 min post-injection): ~2.3; total absorbed dose ([7]; Brain, human): 1.02 ± 0.1 μGy/MBq; total absorbed dose ([7]; Gall bladder, human): 4.82 ± 0.19 μGy/MBq; total absorbed dose ([7]; Heart wall, human): 2.06 ± 0.13 μGy/MBq; total absorbed dose ([7]; Kidneys, human): 4.66 ± 0.22 μGy/MBq; total absorbed dose ([7]; Liver, human): 9.88 ± 0.03 μGy/MBq; total absorbed dose ([7]; Lung, human): 2.13 ± 0.56 μGy/MBq; total absorbed dose ([7]; Pancreas, human): 2.22 ± 0.07 μGy/MBq; total absorbed dose ([7]; Spleen, human): 3.09 ± 0.35 μGy/MBq; total absorbed dose ([7]; Urinary bladder, human): 0.48 ± 0.32 μGy/MBq; total human effective dose ([7]; administration of 10 mCi (370 MBq)): < 0.6 mSv; Effective does (μSv/MBq) ([7]; human): 1.60 ± 0.15 μSv/MBq; safety of imaging for clinical PET studies ([7]; human, in words): safe
– | – | Cc1ccccc1-c1ccc(-c2nc(-c3ccc(CN(C)CC(=O)O)c([18F])c3)no2)cc1C(F)(F)F [[^18F]TZ8247] | brain uptake in nonhuman primates [6]: high brain uptake
– | – | Cc1ccccc1-c1ccc(-c2nc(-c3ccc(CN(C)CCCC(=O)O)c([18F])c3)no2)cc1C(F)(F)F [[^18F]TZ8248] | brain uptake in nonhuman primates [6]: high brain uptake; brain uptake, standard uptake value (SUV) ([6]; macaque brain, 120 min post-injection): ~2.8
